Experimental findings from ChEMBL document CHEMBL1909046, “DrugMatrix in vitro pharmacology data” are described below.

For one data set, the target named is T1, Cytochrome P450 2A6 (Homo sapiens, UniProt P11509). Further: in other assays of this panel Not Active means under 50% inhibition at 10 µM.
T1 sequence (P11509 whole entry): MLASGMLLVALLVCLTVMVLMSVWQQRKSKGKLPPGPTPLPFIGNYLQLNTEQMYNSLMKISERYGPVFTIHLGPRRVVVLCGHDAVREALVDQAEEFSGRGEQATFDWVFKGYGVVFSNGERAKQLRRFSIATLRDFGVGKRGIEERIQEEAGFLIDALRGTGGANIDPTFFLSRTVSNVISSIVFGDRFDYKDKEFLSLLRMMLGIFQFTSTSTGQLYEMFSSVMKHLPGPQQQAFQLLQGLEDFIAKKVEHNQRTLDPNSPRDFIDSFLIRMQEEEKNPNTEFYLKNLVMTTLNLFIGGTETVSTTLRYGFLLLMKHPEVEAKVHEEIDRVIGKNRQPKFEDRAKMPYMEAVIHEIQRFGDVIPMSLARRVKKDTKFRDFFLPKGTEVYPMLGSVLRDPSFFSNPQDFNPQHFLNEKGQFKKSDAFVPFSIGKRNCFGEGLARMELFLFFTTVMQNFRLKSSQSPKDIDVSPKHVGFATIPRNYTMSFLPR
The settings on record: bti-tn-5b1-4.

The next data set addresses T2, Adenosine receptor A1 (Homo sapiens, UniProt P30542).
T2 sequence (P30542 whole entry): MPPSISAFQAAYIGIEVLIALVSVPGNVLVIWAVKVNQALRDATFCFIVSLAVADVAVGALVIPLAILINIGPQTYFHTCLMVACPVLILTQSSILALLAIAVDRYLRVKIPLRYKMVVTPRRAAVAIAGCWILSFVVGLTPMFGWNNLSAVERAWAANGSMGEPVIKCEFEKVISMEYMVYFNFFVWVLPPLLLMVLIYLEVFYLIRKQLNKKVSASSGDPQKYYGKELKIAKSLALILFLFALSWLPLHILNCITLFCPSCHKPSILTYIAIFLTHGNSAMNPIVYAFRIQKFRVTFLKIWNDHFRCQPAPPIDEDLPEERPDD
The class given is cell membranes, CHO, Membrane. To be noted: cho.

For a further data set, the target named is Acetylcholinesterase (Homo sapiens, UniProt P22303). Description: DRUGMATRIX: Acetylcholinesterase enzyme inhibition (substrate: acetylthiocholine). The class given is cell-based, HEK293. To be noted: hek293; Not Active = under 50% inhibition at 10 µM.
Another data set has as its target Melanocortin receptor 5 (Homo sapiens, UniProt P33032). The class given is cell membranes, HEK293, Membrane. To be noted: for pIC50: read-out: IC50; for pKi: read-out: Ki. On all read-outs here: in other assays of this panel Not Active means under 50% inhibition at 10 µM.
The next data set has as its target Melanocortin receptor 3 (Homo sapiens, UniProt P41968). The class given is cell membranes, HEK293, Membrane. The settings on record: hek293. Further: in other assays of this panel Not Active means under 50% inhibition at 10 µM.
Another data set concerns the target Cytochrome P450 2C9 (Homo sapiens, UniProt P11712). To be noted: bti-tn-5b1-4. Further: in other assays of this panel Not Active means under 50% inhibition at 10 µM.

pIC50, pKi: −log10 of the molar value.

Chain of Melanocortin receptor 5 (P33032 whole entry): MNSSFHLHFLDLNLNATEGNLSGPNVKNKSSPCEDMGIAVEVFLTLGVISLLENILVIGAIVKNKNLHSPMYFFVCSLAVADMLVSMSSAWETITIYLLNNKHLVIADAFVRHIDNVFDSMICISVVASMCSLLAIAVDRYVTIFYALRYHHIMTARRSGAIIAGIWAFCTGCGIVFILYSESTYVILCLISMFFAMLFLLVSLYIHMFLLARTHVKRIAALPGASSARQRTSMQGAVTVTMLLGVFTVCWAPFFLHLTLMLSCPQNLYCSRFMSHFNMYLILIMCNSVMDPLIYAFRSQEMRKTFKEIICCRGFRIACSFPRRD
Chain of Melanocortin receptor 3 (P41968 whole entry): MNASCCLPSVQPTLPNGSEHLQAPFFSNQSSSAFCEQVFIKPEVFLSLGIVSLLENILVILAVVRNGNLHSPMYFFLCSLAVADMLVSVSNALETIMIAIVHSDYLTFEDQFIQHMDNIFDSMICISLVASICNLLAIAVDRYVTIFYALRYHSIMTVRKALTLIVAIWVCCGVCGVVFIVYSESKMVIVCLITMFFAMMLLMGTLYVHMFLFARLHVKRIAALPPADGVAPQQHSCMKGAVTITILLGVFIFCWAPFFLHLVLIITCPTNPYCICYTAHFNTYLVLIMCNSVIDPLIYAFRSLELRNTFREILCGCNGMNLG
Chain of Cytochrome P450 2C9 (P11712 whole entry): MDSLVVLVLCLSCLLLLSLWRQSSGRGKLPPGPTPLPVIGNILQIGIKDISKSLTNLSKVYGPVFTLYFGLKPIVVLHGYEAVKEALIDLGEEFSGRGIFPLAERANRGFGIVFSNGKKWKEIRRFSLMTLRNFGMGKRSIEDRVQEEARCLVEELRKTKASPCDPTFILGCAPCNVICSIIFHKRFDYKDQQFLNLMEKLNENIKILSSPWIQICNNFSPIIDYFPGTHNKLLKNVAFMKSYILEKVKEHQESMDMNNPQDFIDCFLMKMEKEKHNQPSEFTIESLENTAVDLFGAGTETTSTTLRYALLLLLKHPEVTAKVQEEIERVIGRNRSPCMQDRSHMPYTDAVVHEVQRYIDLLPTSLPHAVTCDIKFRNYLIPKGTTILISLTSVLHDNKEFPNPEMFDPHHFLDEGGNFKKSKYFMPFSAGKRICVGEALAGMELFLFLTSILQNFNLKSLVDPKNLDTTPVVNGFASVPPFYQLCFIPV
Chain of Acetylcholinesterase (P22303 whole entry): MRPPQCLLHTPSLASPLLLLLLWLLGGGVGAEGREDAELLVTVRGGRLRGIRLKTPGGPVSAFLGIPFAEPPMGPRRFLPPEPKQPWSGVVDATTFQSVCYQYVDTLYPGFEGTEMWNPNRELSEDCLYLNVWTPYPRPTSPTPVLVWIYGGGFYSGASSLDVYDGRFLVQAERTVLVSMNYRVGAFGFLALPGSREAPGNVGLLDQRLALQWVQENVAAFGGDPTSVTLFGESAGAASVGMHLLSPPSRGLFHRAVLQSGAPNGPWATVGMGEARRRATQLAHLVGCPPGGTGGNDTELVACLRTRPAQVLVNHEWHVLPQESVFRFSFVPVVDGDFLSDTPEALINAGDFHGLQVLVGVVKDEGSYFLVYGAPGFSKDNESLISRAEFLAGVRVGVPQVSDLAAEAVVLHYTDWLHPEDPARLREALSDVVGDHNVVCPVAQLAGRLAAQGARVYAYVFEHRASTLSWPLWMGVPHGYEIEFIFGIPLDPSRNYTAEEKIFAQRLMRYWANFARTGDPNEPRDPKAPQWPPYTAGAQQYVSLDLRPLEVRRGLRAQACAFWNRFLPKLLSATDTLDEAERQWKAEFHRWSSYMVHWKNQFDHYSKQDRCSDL

Consider `COC(=O)Nc1nc2ccc([S+]([O-])c3ccccc3)cc2[nH]1` (centres undefined) [OXFENDAZOLE], for which the IC50 entry on Cytochrome P450 2A6, at Adenosine receptor A1, against Acetylcholinesterase, at Melanocortin receptor 5 (hek293), at Melanocortin receptor 3 and on Cytochrome P450 2C9 was “Not Active” in each case. Besides, the Ki result on Cytochrome P450 2A6 and on Cytochrome P450 2C9 was “Not Active” each time.
Consider `CC(=O)O[C@H]1C(=O)[C@@]2(C)[C@H]([C@H](OC(=O)c3ccccc3)[C@]3(O)C[C@H](OC(=O)[C@H](O)[C@@H](NC(=O)c4ccccc4)c4ccccc4)C(C)=C1C3(C)C)[C@]1(OC(C)=O)CO[C@@H]1C[C@@H]2O` [PACLITAXEL], for which the IC50 result against Cytochrome P450 2A6, against Adenosine receptor A1, on Acetylcholinesterase, at Melanocortin receptor 3 and against Cytochrome P450 2C9 was “Not Active” each time. Further, the Ki entry at Cytochrome P450 2A6 and at Cytochrome P450 2C9 was “Not Active” throughout. In addition, the negative logarithm of the IC50 (pIC50) at Melanocortin receptor 5 is 4.77. In addition, at Melanocortin receptor 5, the negative-log Ki (pKi) was 4.79.
In the case of `C[n+]1ccc(-c2cc[n+](C)cc2)cc1.[Cl-].[Cl-]` [PARAQUAT DICHLORIDE], the IC50 entry at Cytochrome P450 2A6, on Adenosine receptor A1, on Acetylcholinesterase, on Melanocortin receptor 5 (hek293), against Melanocortin receptor 3 and on Cytochrome P450 2C9 was “Not Active” throughout. Moreover, the Ki entry at Cytochrome P450 2A6 and at Cytochrome P450 2C9 was “Not Active” in each case.
For the compound `CCn1cc(C(=O)O)c(=O)c2cnc(N3CCCC3)nc21` [PIROMIDIC ACID], the IC50 result at Cytochrome P450 2A6, at Adenosine receptor A1, against Acetylcholinesterase, on Melanocortin receptor 5 (hek293), on Melanocortin receptor 3 and against Cytochrome P450 2C9 was “Not Active” in each case. Further, the Ki entry on Cytochrome P450 2A6 and at Cytochrome P450 2C9 was “Not Active” in each case.
Turning to `C[n+]1ccccc1/C=N/O.[Cl-]` [PRALIDOXIME CHLORIDE], the IC50 result at Cytochrome P450 2A6, against Adenosine receptor A1, against Acetylcholinesterase, against Melanocortin receptor 5 (hek293), against Melanocortin receptor 3 and on Cytochrome P450 2C9 was “Not Active” each time. Besides, the Ki result at Cytochrome P450 2A6 and on Cytochrome P450 2C9 was “Not Active” throughout.
Turning to `COc1cc2nc(N3CCN(C(=O)c4ccco4)CC3)nc(N)c2cc1OC` [PRAZOSIN], the IC50 entry against Cytochrome P450 2A6, at Adenosine receptor A1, on Acetylcholinesterase, against Melanocortin receptor 5 (hek293), at Melanocortin receptor 3 and at Cytochrome P450 2C9 was “Not Active” in each case. Also, the Ki result at Cytochrome P450 2A6 and at Cytochrome P450 2C9 was “Not Active” throughout.
Consider `C[C@]12C=CC(=O)C=C1CC[C@@H]1[C@@H]2[C@@H](O)C[C@@]2(C)[C@H]1CC[C@]2(O)C(=O)CO` [PREDNISOLONE], for which the IC50 result against Cytochrome P450 2A6, at Adenosine receptor A1, against Acetylcholinesterase, against Melanocortin receptor 5 (hek293), against Melanocortin receptor 3 and against Cytochrome P450 2C9 was “Not Active” in each case. The Ki entry at Cytochrome P450 2A6 and at Cytochrome P450 2C9 was “Not Active” in each case.
With `CC(=O)[C@H]1[C@H](C#N)C[C@H]2[C@@H]3CC=C4C[C@@H](O)CC[C@]4(C)[C@H]3CC[C@@]21C` [PREGNENOLONE CARBONITRILE], the IC50 entry at Cytochrome P450 2A6, against Adenosine receptor A1, against Acetylcholinesterase, against Melanocortin receptor 5 (hek293), against Melanocortin receptor 3 and at Cytochrome P450 2C9 was “Not Active” in each case. Also, the Ki entry on Cytochrome P450 2A6 and at Cytochrome P450 2C9 was “Not Active” in each case.
With `CCCN(CCC)S(=O)(=O)c1ccc(C(=O)O)cc1` [PROBENECID], the IC50 result at Cytochrome P450 2A6, at Adenosine receptor A1, against Acetylcholinesterase, on Melanocortin receptor 5 (hek293), on Melanocortin receptor 3 and against Cytochrome P450 2C9 was “Not Active” each time. Further, the Ki result at Cytochrome P450 2A6 and at Cytochrome P450 2C9 was “Not Active” each time.
Regarding `CCCOc1ccc(C(=O)OCCN(CC)CC)cc1N` [PROPARACAINE], the IC50 result against Cytochrome P450 2A6, against Adenosine receptor A1, against Acetylcholinesterase, against Melanocortin receptor 5 (hek293), on Melanocortin receptor 3 and against Cytochrome P450 2C9 was “Not Active” throughout. In addition, the Ki entry on Cytochrome P450 2A6 and at Cytochrome P450 2C9 was “Not Active” throughout.
On to `Oc1cccc(O)c1O` [PYROGALLOL], for which the IC50 entry at Cytochrome P450 2A6, against Adenosine receptor A1, at Acetylcholinesterase, against Melanocortin receptor 5 (hek293), against Melanocortin receptor 3 and against Cytochrome P450 2C9 was “Not Active” each time. The Ki entry at Cytochrome P450 2A6 and at Cytochrome P450 2C9 was “Not Active” throughout.
On to AURANOFIN, for which the IC50 entry on Cytochrome P450 2A6, against Adenosine receptor A1, against Acetylcholinesterase, on Melanocortin receptor 5 (hek293), against Melanocortin receptor 3 and against Cytochrome P450 2C9 was “Not Active” each time. Besides, the Ki entry on Cytochrome P450 2A6, at Adenosine receptor A1, at Acetylcholinesterase, at Melanocortin receptor 5 (hek293), on Melanocortin receptor 3 and at Cytochrome P450 2C9 was “Not Active” in each case.
On to GADOPENTETATE DIMEGLUMINE, for which the IC50 entry on Cytochrome P450 2A6, on Adenosine receptor A1, at Acetylcholinesterase, on Melanocortin receptor 5 (hek293), against Melanocortin receptor 3 and on Cytochrome P450 2C9 was “Not Active” throughout. The Ki entry on Cytochrome P450 2A6, at Adenosine receptor A1, at Acetylcholinesterase, at Melanocortin receptor 5 (hek293), at Melanocortin receptor 3 and at Cytochrome P450 2C9 was “Not Active” throughout.
Consider GENTAMICIN, for which the IC50 entry at Cytochrome P450 2A6, against Adenosine receptor A1, at Acetylcholinesterase, against Melanocortin receptor 5 (hek293), at Melanocortin receptor 3 and at Cytochrome P450 2C9 was “Not Active” throughout. The Ki entry on Cytochrome P450 2A6, at Adenosine receptor A1, on Acetylcholinesterase, at Melanocortin receptor 5 (hek293), at Melanocortin receptor 3 and on Cytochrome P450 2C9 was “Not Active” each time.
With GRAMICIDIN, the IC50 entry at Cytochrome P450 2A6, against Adenosine receptor A1, at Acetylcholinesterase, against Melanocortin receptor 3 and against Cytochrome P450 2C9 was “Not Active” in each case. Besides, the Ki entry at Cytochrome P450 2A6, at Adenosine receptor A1, on Acetylcholinesterase, on Melanocortin receptor 3 and at Cytochrome P450 2C9 was “Not Active” each time. Besides, the pIC50 at Melanocortin receptor 5 (hek293) was 5.70. Further, at Melanocortin receptor 5 (hek293), the negative-log Ki (pKi) was 5.72.
On to NYSTATIN, for which the IC50 result against Cytochrome P450 2A6, at Adenosine receptor A1, at Acetylcholinesterase, against Melanocortin receptor 5 (hek293), at Melanocortin receptor 3 and against Cytochrome P450 2C9 was “Not Active” in each case. For the same compound, the Ki entry at Cytochrome P450 2A6, on Adenosine receptor A1, on Acetylcholinesterase, at Melanocortin receptor 5 (hek293), on Melanocortin receptor 3 and on Cytochrome P450 2C9 was “Not Active” throughout.

A word on the pIC50: it is the negative decadic logarithm of the IC50, by convention in mol/L. Broadly, the pKi is the negative decadic logarithm of the Ki, by convention in mol/L.
